According to PMC9564300, “Cytotoxic Mechanism of Momilactones A and B against Acute Promyelocytic Leukemia and Multiple Myeloma Cell Lines” (Cancers, 2022):
Where “and” joins values, the source holds several entries; their conditions need not be identical. Identical values can stand only once. Each block holds one compound with its values, some of them ahead of it.

How the values were obtained:
[1] = system: acute promyelocytic leukemia HL-60 cell line; assay: Cell viability (MTT) assay on HL-60; format: cell-based; details: Homo sapiens; for IC50: HL-60, 48 h
Experimental: (§1) In this assay, culture media was prepared by adding fetal bovine serum (10%), L-glutamine (5 mM), penicillin (100 IU/mL), and streptomycin (100 µg/mL) to IMDM (Sigma-Aldrich, St. Louis, MO, USA). The cells (5 × 10^3 cells/well) were seeded into a 96-well plate filled with 100 µL of culture media and placed in a CO2 incubator at 37 °C. After 24 h, the cells were treated with MA, MB, and MAB with different concentrations (0.5, 1, 5, and 10 µM) for 48 h. Subsequently, 10 µL of the MTT solution (5 mg/mL, Sigma-Aldrich) was pipetted into each well. The cells were continuously incubated for 4 h. Finally, 100 µL of cell lysis buffer (10% SDS in 0.01 M HCl) was applied to dissolve the colored formazan crystals. Culture media instead of momilactones was used as the negative control. Meanwhile the drugs consisting of doxorubicin, all-trans retinoic acid (ATRA), the mixture of ATRA and arsenic trioxide (ATRA/ATO) (1:1, w/w), and bortezomib were tested as the standard inhibitors. The absorbance at 595 nm was scanned to determine the cell growth rate using a spectrophotometer (SpectraMAX M5, Molecular Devices, Sunnyvale, CA, USA). All tests were performed with three replications. The cytotoxic activity (% inhibition) of momilactones and/or inhibitors on the tested cell lines was as follows:Inhibition (%) = (ANC − AS)/ANC × 100(1) where ANC: absorbance of reaction with negative control, and AS: absorbance of reaction with momilactone and/or inhibitor.
(§2) Dose-responding curves and IC50 values (the required concentration for inhibiting 50% of cell viability) of momilactones and the standard inhibitors for cytotoxicity against tested cell lines were established. A lower IC50 indicates a stronger cytotoxic activity.

[2] = system: non-cancerous MeT-5A cell line; assay: Cell viability (MTT) assay on MeT-5A; format: cell-based; details: Homo sapiens, 48 h
Experimental: as §1, §2

[3] = system: multiple myeloma U266 cell line; assay: Cell viability (MTT) assay on U266; format: cell-based; details: Homo sapiens; for IC50: U-266, U266, 48 h
Experimental: as §1, §2

[4] = system: non-cancerous MeT-5A cell line; assay: Cell apoptosis (annexin V) assay on MeT-5A; format: cell-based, human; details: 5 µM
Experimental: (§3) The procedure was conducted in triplicate following Lam et al.. In brief, the cells (5 × 10^5 cells/well) were seeded into a 6-well plate filled with 1.5 mL of culture media and cultured in a CO2 incubator for 24 h with the same condition as mentioned in the MTT assay. The cells were then treated with momilactones at a concentration of 5 µM for 24 and 48 h. The non-treated cells were used as a control. Harvested cells were washed twice with cold phosphate-buffered saline (PBS). After that, the control and treated cells were incubated with annexin V-conjugated fluorescein isothiocyanate (FITC) (Biolegend, San Diego, CA, USA) and propidium iodide (PI) for 15 min at 25 °C. The obtained cells were dissolved in 450 µL of PBS. The solution was filtered by a nylon membrane to prevent cell clumping and kept on ice until analysis. The intensities of annexin V-FITC and PI and the percentages of apoptotic cells were instantly determined by a flow cytometer (BD, Franklin Lakes, NJ, USA).

[5] = system: acute promyelocytic leukemia HL-60 cell line; assay: Cell apoptosis (annexin V) assay on HL-60; format: cell-based, human; details: HL-60, 5 µM
Experimental: as §3

[6] = system: multiple myeloma U266 cell line; assay: Cell apoptosis (annexin V) assay on U266; format: cell-based, human; details: U266, 5 µM
Experimental: as §3

[7] = system: non-cancerous MeT-5A cell line; assay: Cell cycle assay (PI, flow cytometry) on MeT-5A; format: cell-based, human; details: 5 µM, 48 h
Experimental: (§4) The cells (5 × 10^5 cells/well) were cultured and treated in triplicate following the same methods as the apoptosis assay. The FxCycle PI/RNase staining solution was applied according to the manufacturer’s instructions (Calbiochem, Darmstadt, Germany). The cell cycle distribution at each phase of G1, S, and G2 was determined based on the cell’s DNA content. The percentages of cells in different phases of the cell cycle were quantified by a flow cytometer (BD, Franklin Lakes, NJ, USA). In brief, the collected cells were washed with ice-cold PBS. Subsequently, ice-cold PBS in pure ethanol was added to disperse the cells. The obtained solution was stored at 4 °C for 24 h for fixing. For analysis, the cells were incubated with 10 mg/mL of RNase A (Sigma-Aldrich) for 5 min on ice. The following step was conducted by adding 1 mg/mL of PI (in PBS). After incubating for 10 min at room temperature, the cells were dissolved in 450 µL of PBS. The solution was then filtered using a nylon membrane to remove cell clumping before analysis. Subsequently, the flow cytometric measurement was immediately performed.

[8] = system: acute promyelocytic leukemia HL-60 cell line; assay: Cell cycle assay (PI, flow cytometry) on HL-60; format: cell-based, human; details: HL-60, 5 µM
Experimental: as §4

[9] = system: phosphorylated p-38/total p-38; assay: Western blotting in HL-60: phosphorylated p-38/total p-38; format: cell-based, human; details: HL-60, 5 µM, control 0.48
Experimental: (§5) The cells (5 × 10^5 cells/well) were cultured and treated in triplicate following the same methods as the apoptosis and cell cycle assays. The cell lysates were conducted by rinsing cells with PBS, followed by adding 2× loading buffer two times (4% SDS, 10% 2-mercaptoethanol, 20% glycerol, 0.004% bromophenol blue, 0.125 M Tris-HCl, pH 6.8). The extracted protein ([…]) was subjected to sodium dodecyl sulfate (SDS)-polyacrylamide gels, applying 10% acrylamide, and subsequently transferred to a polyvinylidene fluoride membrane (Takara Bio, Shiga, Japan) by electroblotting. The membrane was blocked using 3% skim milk in PBS-0.05% Tween 20 (PBS-T) at 25 °C for 1 h. The incubation with each antibody (2 µg/mL) against anti-rabbit total p-38/MAPK, phosphorylated p-38/MAPK, BCL-2, procaspase-3, cleaved caspase-3, CDK1/cdc2, cyclin B1, and GAPDH (BioLegend, San Diego, CA, USA) in blocking buffer was conducted overnight at 4 °C. The following step was performed by washing the membrane with PBS-T in triplicate. The collected membrane was incubated with a secondary antibody of horseradish peroxidase-labeled goat anti-rabbit IgG (20 ng/mL) (IBL, Gunma, Japan) at 37 °C for 1 h. […] The relative expression (RE) was calculated by normalizing the intensity of targeted proteins to the intensity of the housekeeping protein GAPDH.

BCL-2 [10] = assay: Western blotting in HL-60: BCL-2; format: cell-based, human; details: HL-60, 5 µM
Experimental: as §5

[11] = system: cleaved caspase-3/procaspase-3; assay: Western blotting in HL-60: cleaved caspase-3/procaspase-3; format: cell-based, human; details: HL-60, 5 µM, control 0.17
Experimental: as §5

cyclin B1 = assay: Western blotting in HL-60: cyclin B1; format: cell-based, human; details: HL-60, 5 µM, control 1.17
Experimental: as §5

CDK1 = assay: Western blotting in HL-60: CDK1; format: cell-based, human; details: HL-60, 5 µM, control 1.55
Experimental: as §5

[12] = system: phosphorylated p-38/total p-38; assay: Western blotting in U266: phosphorylated p-38/total p-38; format: cell-based, human; details: U266, 5 µM, control 1.00
Experimental: as §5

BCL-2 [13] = assay: Western blotting in U266: BCL-2; format: cell-based, human; details: U266, 5 µM
Experimental: as §5

[14] = system: cleaved caspase-3/procaspase-3; assay: Western blotting in U266: cleaved caspase-3/procaspase-3; format: cell-based, human; details: U266, 5 µM
Experimental: as §5

IC50 [1]: 3.99 ± 0.16 µM
SMILES: CC1=C(/C=C/C(C)=C/C=C/C(C)=C/C(=O)O)C(C)(C)CCC1 [ATRA, all-trans retinoic acid, reference compound]

IC50 [1]: 5.22 ± 0.15 µM
IC50 [3]: 240 ± 10 nM
SMILES: COc1cccc2c1C(=O)c1c(O)c3c(c(O)c1C2=O)C[C@@](O)(C(=O)CO)C[C@@H]3O[C@H]1C[C@H](N)[C@H](O)[C@H](C)O1 [Doxorubicin, doxorubicin, reference compound]
inhibition at 10 µM [2]: 49.2 ± 6.17%

SMILES: C=C[C@]1(C)CC[C@@H]2C(=C[C@H]3OC(=O)[C@@]4(C)C(=O)CC[C@@]2(C)[C@@H]34)C1 [MA, momilactone A]
inhibition at 10 µM [2]: 28.5 ± 2.93%
inhibition at 10 µM ([1]; HL-60, 10 µM, 48 h, read-out: HL-60 inhibition percentage at 10 µM): 30.2%
inhibition at 10 µM ([3]; U-266, U266, 10 µM, 48 h, read-out: U266 inhibition percentage at 10 µM): 41%

IC50 [1]: 4.49 ± 0.34 µM
IC50 [3]: 5090 ± 580 nM
SMILES: C=C[C@]1(C)CC[C@@H]2C(=C[C@H]3OC(=O)[C@]4(C)[C@H]3[C@]23CC[C@]4(O)OC3)C1 [MB, momilactone B]
inhibition at 10 µM [2]: 38 ± 2.29%
% apoptosis (FITC+) ([4]; 24 h): 2.9% and 2.87%
FITC- cells ([4]; 24 h): 97.1%
% apoptosis (FITC+) ([4]; 48 h): 10.3%
FITC- cells ([4]; 48 h): 89.7%
increase in cell apoptosis compared to the non-treated control ([4]; 48 h): 2.67 fold
% apoptosis (FITC+) ([5]; 24 h): 1.1%
FITC- cells ([5]; 24 h): 98.9%
increase in apoptotic process over the control ([5]; 24 h): 1.30 fold
% apoptosis (FITC+) ([5]; 48 h): 40.5%
FITC- cells ([5]; 48 h): 59.5%
% apoptosis (FITC+) ([6]; 24 h): 16.9%
FITC- cells ([6]; 24 h): 83.1%
% apoptosis (FITC+) ([6]; 48 h): 18.0%
FITC- cells ([6]; 48 h): 82.0%
increase of cell percentage of sub-G1 compared to the untreated control [7]: 2.59 times
cells in G2 phase ([8]; 24 h): 30.1%
cells in G2 phase ([8]; 48 h): 29.2%
relative expression (RE) of phosphorylated p-38/total p-38 ([9]; 24 h): 1.15
relative expression (RE) of phosphorylated p-38/total p-38 ([9]; 48 h): 0.96
BCL-2 RE value, fold lower than the control (BCL-2 [10]; 24 h): 1.92 fold
BCL-2 RE value, fold lower than the control (BCL-2 [10]; 48 h): 2.32 fold
RE of cleaved caspase-3/procaspase-3 ([11]; 24 h): 0.56
RE of cleaved caspase-3/procaspase-3 ([11]; 48 h): 0.77
RE of cyclin B1 (cyclin B1; 24 h): 0.80
RE of cyclin B1 (cyclin B1; 48 h): 0.69
RE of CDK1 (CDK1; 24 h): 1.10
RE of CDK1 (CDK1; 48 h): 0.75
RE of phosphorylated p-38/total p-38 ([12]; 24 h): 2.47
RE of phosphorylated p-38/total p-38 ([12]; 48 h): 2.35
inhibition of BCL-2 expression compared to the control (BCL-2 [13]; 24 h): 2.37 times
decrease of BCL-2 expression over the control (BCL-2 [13]; 48 h): 4.41 fold
increase of cleaved caspase-3/procaspase-3 expression over the control ([14]; 24 h): 5.33 times
increase of cleaved caspase-3/procaspase-3 expression over the control ([14]; 48 h): 8.83 times

IC50 [3]: 8 nM
SMILES: CC(C)C[C@H](NC(=O)[C@H](Cc1ccccc1)NC(=O)c1cnccn1)B(O)O [bortezomib, reference compound]
